# Reference: US20110021621A1, “Drug for treating circulatory insufficiency” (ACTIVUS PHARMA CO., LTD., priority 2005, published 2011)
# Like-named read-outs stand apart in the source and are kept apart here.
# Tests used:
# [1] = tested on: circulatory insufficiency model of rats induced by injection of lauric-acid into their femoral artery; assay: Circulatory insufficiency model induced by lauric-acid in rats (lesion index); format: in vivo, rat; set-up: key: summed toe lesion grades, +5 if heel reached; max 25 points; settings: male Wistar rats, average, max 25 points; for Lesion Index after 10 days: 30 mg/kg multiple oral dosing (1 h prior to and 3 h after lauric-acid, then twice daily for 9 days), 10 days after lauric-acid injection; for Lesion Index after 3 days: 30 mg/kg multiple oral dosing (1 h prior to and 3 h after lauric-acid, then twice daily), 3 days after lauric-acid injection
# Experimental: We performed this test in order to evaluate the pharmacological effect of the compounds of the present invention using a circulatory insufficiency model of rats induced by injection of lauric-acid into their femoral artery.
# 13-week-old male Wistar rats (body weight is 280 to 316 g), 8 rats per one group, were used. The rats were held in a supine position under anesthesia due to administration of 40 mg/kg of sodium pentobarbital by intraperitoneal injection. Then, the right femoral area was incised, thereby injecting 0.15 mL of 10 mg/mL lauric-acid solution into the femoral artery in order to induce lower limb gangrene caused by the peripheral vascular disorder. A few drops of instant adhesive (Aron-alpha; registered trademark) were used to stop bleeding, followed by topical application of antibiotics (potassium penicillin G solution) to prevent infection, and the incision site was then sutured.
# The suspension was administered, by means of multiple oral dosing, 1 hour prior to and 3 hours after injection of lauric-acid and twice daily (at 10:00 and 17:00) for the following 9 days, at the dose of 30 mg/kg for each compound. […] The suspension was administered orally 3 hours prior to injection of lauric-acid at the dose of 300 mg/kg.
# The extent of lesions was evaluated 3 days and 10 days after injection of lauric acid by the following criteria:
# The lesion of each toe was graded and the total points of 5 toes were use as a lesion index, wherein 5 points were further added when the lesion reached the heel (i.e. the maximum lesion index was 25 points).
# The shown number refers to the average value of the lesion index obtained from the evaluation.
# [2] = Stability test in acidic or basic solution (half-life by liquid chromatography); format: physicochemical; settings: time to 50% residual rate
# Experimental: The test compounds were dissolved in an acidic solution (phosphate buffer (pH3.4)) and in a basic solution (phosphate buffer (pH7.3)) at the concentration of 1 mmoL/L. Immediately after they were dissolved, each solution was analyzed with liquid chromatography using an acidic solution (phosphate buffer (pH3.4)) or basic solution (phosphate buffer (pH7.3)) as an eluent. The peak area of the test compounds was measured as the initial value. Furthermore, a time-course analysis with liquid chromatograpy was conducted to measure the peak area at each time point. The solution containing the test compound was kept in an incubator at 37° C. Based on the measured peak area of the test compounds, the percentage (%) of the peak area at each measurement time point was calculated, taking the peak area of the initial value as 100(%). The half-life (the time to show a 50% residual rate of the test compounds) of the test compounds was further calculated, and its stability was evaluated based on the half-life.
"half-life at 1 mmoL/L ([2]; phosphate buffer pH 3.4, 37° C., read-out: Half-life, pH 3.4 solution (converted)) [h]","half-life at 1 mmoL/L ([2]; phosphate buffer pH 7.3, 37° C., read-out: Half-life, pH 7.3 solution (converted)) [h]",Structure (SMILES),Lesion Index after 10 days [1],Lesion Index after 3 days [1]
–,–,CCOc1c(O)c2ccc(O)cc2oc1=O [Compound 118],8.3,2.4
–,–,CC(C)=CCCC(C)=CCOc1c(O)c2ccc(O)cc2oc1=O [Compound 141],7.8,2.6
–,–,CCCCC(CC)Oc1c(O)c2c(OCCO)cccc2oc1=O (centres unmarked) [Compound 244],7.4,3.5
–,–,CCCCCCOc1c(O)c2cccc(OCCCC)c2oc1=O [Compound 214],7.9,3.5
–,–,CCCCCCCCOc1c(O)c2c(OCCCCC(=O)O)cccc2oc1=O [Compound 333],7.4,3.0
–,–,CCCOc1c(O)c2ccc(O)cc2oc1=O [Compound 119],7.1,2.5
–,–,CCCCCCCCCCOc1c(O)c2ccc(OCC(O)CO)cc2oc1=O (centres unmarked) [Compound 485],7.9,2.8
–,–,CC(C)Oc1c(O)c2ccc(O)cc2oc1=O [Compound 120],8.0,2.3
–,–,CCCCCCC=COc1c(O)c2cccc(O)c2oc1=O [Compound 196],7.4,3.3
–,–,CCCCCCOc1c(O)c2cc(OCCC(O)CO)ccc2oc1=O (centres unmarked) [Compound 388],7.5,2.9
–,–,CCCCCCCCOc1c(O)c2cc(OCCCC(=O)O)ccc2oc1=O [Compound 429],7.9,2.2
–,–,CCCCOc1c(O)c2c(OCC(=O)O)cccc2oc1=O [Compound 295],7.2,3.0
–,–,CC(C)CCCOc1c(O)c2cc(OCCO)ccc2oc1=O [Compound 347],8.1,2.3
–,–,CCCCOc1c(O)c2c(OCCO)cccc2oc1=O [Compound 237],7.9,3.4
–,–,CC(C)CCCOc1c(O)c2ccc(OCCO)cc2oc1=O [Compound 449],7.3,2.8
–,–,CCCCCCCCOc1c(O)c2cccc(OCCCC(=O)O)c2oc1=O [Compound 633],7.4,2.6
–,–,CCCCCCOc1c(O)c2cc(O)ccc2oc1=O [Compound 67],7.5,2.8

"half-life at 1 mmoL/L ([2]; phosphate buffer pH 3.4, 37° C., read-out: Half-life, pH 3.4 solution (converted)) [h]","half-life at 1 mmoL/L ([2]; phosphate buffer pH 7.3, 37° C., read-out: Half-life, pH 7.3 solution (converted)) [h]",Structure (SMILES),Lesion Index after 10 days [1],Lesion Index after 3 days [1]
–,–,CCCCOc1c(O)c2ccc(O)cc2oc1=O [Compound 121],7.3,2.8
–,–,CCCCCCCCOc1c(O)c2ccc(OCCC(O)CO)cc2oc1=O (centres unmarked) [Compound 491],7.4,2.9
–,–,CCCCC(CC)Oc1c(O)c2ccc(OCCCCO)cc2oc1=O (centres unmarked) [Compound 477],7.7,2.9
–,–,CCCCC(CC)Oc1c(O)c2ccc(OCC(=O)O)cc2oc1=O (centres unmarked) [Compound 506],7.3,2.7
35,65,"O=c1oc2ccc(-c3ccccc3)cc2c(O)c1O [C, reference compound]",–,–
–,–,CCCCCCCCOc1c(O)c2c(OCC(O)CO)cccc2oc1=O (centres unmarked) [Compound 280],7.9,2.7
–,–,CCCCOc1c(O)c2cccc(O)c2oc1=O [Compound 179],8.4,3.6
–,–,CCCCCCCCOc1c(O)c2ccc(OCCCO)cc2oc1=O [Compound 468],7.8,2.8
–,–,CCCCCCOc1c(O)c2cccc(OCCO)c2oc1=O [Compound 547],7.2,3.0
–,–,CCCCOc1c(O)c2c(OCCCO)cccc2oc1=O [Compound 261],7.6,3.7
–,–,CC(C)=CCCC(C)=CCOc1ccc2c(O)c(OCC=C(C)CCC=C(C)C)c(=O)oc2c1 [Compound 174],7.5,2.7
–,–,CCCCCCCCOc1c(O)c2ccc(O)cc2oc1=O [Compound 131],7.5,3.0
–,–,CC(C)CCCOc1c(O)c2cccc(OCCO)c2oc1=O [Compound 551],7.8,2.5
–,–,CCCCCOc1c(O)c2ccc(O)cc2oc1=O [Compound 123],7.9,2.6
–,–,CCCCCCOc1c(O)c2cc(OCCCC)ccc2oc1=O [Compound 98],8.4,3.0
–,–,CCC(CC)Oc1c(O)c2ccc(O)cc2oc1=O [Compound 124],8.3,3.0
–,–,CCCCCCOc1c(O)c2c(O)cccc2oc1=O [Compound 9],7.8,2.5
